Reference: patent US20160274087A1, “SCREENING ASSAY FOR AGENTS THAT INFLUENCE BETA CELL NUMBER AND/OR PHENOTYPE” (VRIJE UNIVERSITEIT BRUSSEL, priority 2013, published 2016)

Key:
rat beta cells [1] = experiment: Number of living beta cells in culture (Hoechst 33342/propidium iodide whole-well imaging counts; expansion assay); type: cell-based
Method: (§1) Beta cells were FACS-purified from islet-cell enriched suspensions (Pipeleers et al., 1985) prepared from neonatal (2-3 days-old) and adolescent or adult (8 or 40-week-old, male) Wistar rats (Janvier Bioservices, France); their purity was, respectively 70-75% and over 90%. Sorted cells were counted in a hemocytometer, seeded (day 0) and cultured for up to 15 days in serum-free Ham's-F10 medium at 5, 10 or 20 mmol/l glucose, supplemented with 2 mmol/l L-glutamine, 50 μM 3-isobutyl-1-methylxanthine, 0.5% Albumax-I, penicillin (100 U/ml) and streptomycin (0.1 mg/ml). The 10 mmol/l glucose condition is known to maintain beta cell survival over 9-days (Ling et al., 1994; Ling and Pipeleers, 1994). Medium and cells were retrieved after selected culture periods and assayed for insulin content; data were expressed as a function of the number of living beta cells that was determined in parallel wells.
(§2) On day 1, 9 and 15 of culture, total numbers of living beta cells per well were determined by semi-automatic cell count, after Hoechst 33342 (Ho) and propidium iodide (PI) staining. Numbers of living beta cells were obtained by subtracting the PI-positive cell numbers from the Ho-positive cell numbers, and correcting for the percent insulin-negative cells, as determined following insulin-immunofluorescence staining. They were expressed as percent of the numbers on day 1. Each condition was also evaluated for increases in the percentage of proliferating beta cells (incorporating the thymidine-analogue 5-ethynyl-2′-deoxyuridine, EdU; 100 μmol/l). To detect beta cells that underwent two successive cycles, cells were sequentially exposed to two different thymidine-analogs, first EdU from day 3 to 6, and then BrdU (100 μmol/l) from day 7 to 10, with a 24-hour label-free period in between. EdU-positive (EdU^+) nuclei were detected with the Click-iT Assay kit (Invitrogen), while BrdU-positive (BrdU^+) nuclei were identified with anti-BrdU antibody.
(§3) Absolute number of cells was determined by whole-well imaging using the BD-PathwayBioimager855 (BD-Biosciences). IPLab and AttoVision software packages (BD-Biosciences) were used for image background subtraction, segmentation and quantification.
Experimental procedures for isolation of beta cells from neonatal (2-3 days old) and adult (8 or 40 week old, male) Wistar rats (Janvier Bioservices, France) and analysis of their number, viability and proliferation activity in culture have been described before (Assefa et al., 2014). Sorted beta cells were seeded in 804G matrix-coated plates (designated as day 0) and the numbers and viability of seeded cells at the start of all experiments were determined on day 1 (24 h after seeding). The cells were cultured in control medium, which is a serum-free Ham's F10 medium supplemented with 2 mM L-glutamine, 50 μM 3-isobutyl-1-methylxanthine, 0.5% Albumax I, penicillin (100 U/ml), streptomycin (0.1 mg/ml) and, unless indicated otherwise, 10 mM glucose.
(§4) Sorted beta cells were seeded in 384-well or 6-well plates coated with 804G matrix, and kept in culture for up to 15 days at 37° C. 5% CO2 using Ham F10 supplemented with 1 mM L-glutamine, 0.1 mg/ml streptomycin, 0.075 mg/ml penicillin, 50 μM of isobutyl-1-methylxanthine (IBMX) at 10 mM D-glucose with and without synthetic GCs (6 methyl-prednisolone (6MP), dexamethasone (DEX), GR-modulators (compound A (CPA), mifepristone (MIF), and NFκB inhibitors (JSH-23 en Bay11-7085). Total cell number and beta cell viability was evaluated after incubation with Hoechst 33342 and propidium iodide. All chemicals were from Sigma Life Sciences or Merck. Quantification of cell numbers and analysis of beta-cell viability was done using the Pathway Bioimager (BD Biosciences) and using IPlab and Attovision software for background subtraction as described prior (Assefa et al., 2014).

[2] = test system: GR trans-repression and trans-activation targets, cell cycle genes and beta cell phenotype markers; experiment: Q-PCR of mRNA levels in cultured beta cells; type: cell-based, rat; conditions: 9 days culture; 1 μM 6MP, 1 μM MIF, 0.5 μM CPA; vehicle = 1.0
rat beta cells [3] = experiment: Beta cell DNA synthesis/proliferation by EdU (and BrdU) incorporation, incl. LOPAC screen; type: cell-based; conditions: for Percent EdU+ cells / Z-Score: LOPAC screen at 1 μM, adult rat beta cells, EdU day 3 to 6; for Percent EdU+ cells: control medium 5.6; for Z-Score: hit cut-off three standard deviations
Method: as §2
Freshly purified beta cells were cultured in control medium for 24 h prior to the addition of the LOPAC test compounds (day 1). The culture medium was refreshed on day 3 and the cells were then cultured further with 5-ethynyl-2′-deoxyuridine (EdU; 10 μM) up to day 6. Cell viability and percentage EdU incorporation were quantified after imaging and image analysis using the BD Pathway Bioimager, as described before (Assefa et al., 2014). To test the significance of compound effect on beta cell proliferation, average Z-score for each compound was calculated and a cut-off for potential positive hits was set at a Z-score of greater than three standard deviations. Thus, a compound is considered a hit only if it increases the percent EdU incorporation to above three standard deviation of the plate-averaged percent EdU incorporation.
as §4, with “2014). Replicating beta cells were quantified after 24 or 72 hrs incubation with 5-ethynyl-2′-deoxyuridine (EdU, a thymidine analog) using the ClickIT EDU Alexa Fluor assay (Invitrogen). EdU-positive cells were expressed as percentage of total cell number.” for “2014).”

rat beta cells [4] = experiment: Cellular insulin content, insulin release and glucose-stimulated insulin secretion of cultured beta cells; type: cell-based
Method: as §1

rat beta cells [5] = experiment: Beta cell viability / cell death (propidium iodide assay); type: cell-based; conditions: for Percent viable cells: LOPAC screen at 1 μM, adult rat beta cells, day 6, control medium 97
Text: as §2, with “Numbers” for “On day 1, 9 and 15 of culture, total numbers of living beta cells per well were determined by semi-automatic cell count, after Hoechst 33342 (Ho) and propidium iodide (PI) staining. Numbers”, “Each condition was also evaluated for increases in the percentage of proliferating beta cells (incorporating the thymidine-analogue 5-ethynyl-2′-deoxyuridine, EdU; 100 μmol/l).” left out
as §3
Freshly purified beta cells were cultured in control medium for 24 h prior to the addition of the LOPAC test compounds (day 1). The culture medium was refreshed on day 3 and the cells were then cultured further with 5-ethynyl-2′-deoxyuridine (EdU; 10 μM) up to day 6. […] Thus, a compound is considered a hit only if it increases the percent EdU incorporation to above three standard deviation of the plate-averaged percent EdU incorporation.

SMILES: C[C@H]1C[C@@H]2[C@H]([C@@H](O)C[C@@]3(C)[C@H]2CC[C@]3(O)C(=O)CO)[C@@]2(C)C=CC(=O)C=C12 [6MP, 6-methylprednisolone]
- cells after 15-day culture compared to day 1 numbers (rat beta cells [1]; 10 mM glucose and MP): 152±5%
- change of beta cell numbers between day 1 and 15 (rat beta cells [1]; 6MP 1 μM, DEX 0.01 μM, CPA 0.5 μM): nearly double
- increase in absolute number of living beta cells in culture (rat beta cells [1]; two-weeks culture): near population doubling
- CDK4 mRNA level (ΔΔCt values relative to basal vehicle control) [2]: 1.7 ± 0.2^2
- CXCL11 mRNA level (ΔΔCt values relative to basal vehicle control) [2]: 0.1 ± 0.0^3
- Cyclin B1 mRNA level (ΔΔCt values relative to basal vehicle control) [2]: 4.7 ± 0.7^3
- Cyclin B2 mRNA level (ΔΔCt values relative to basal vehicle control) [2]: 4.8 ± 0.8^3
- Cyclin E1 mRNA level (ΔΔCt values relative to basal vehicle control) [2]: 2.3 ± 0.3^3
- CyclinD1 mRNA level (ΔΔCt values relative to basal vehicle control) [2]: 0.8 ± 0.1^
- DLK1 mRNA level (ΔΔCt values relative to basal vehicle control) [2]: 24491 ± 5157^3
- FKBP4 mRNA level (ΔΔCt values relative to basal vehicle control) [2]: 1.2 ± 0.1^
- FKBP5 mRNA level (ΔΔCt values relative to basal vehicle control) [2]: 15.4 ± 2.2^3
- GDF11 mRNA level (ΔΔCt values relative to basal vehicle control) [2]: 3.8 ± 1.0^3
- ICAM1 mRNA level (ΔΔCt values relative to basal vehicle control) [2]: 0.1 ± 0.1^3
- MKP1 mRNA level (ΔΔCt values relative to basal vehicle control) [2]: 20.7 ± 4.2^3
- MafA mRNA level (ΔΔCt values relative to basal vehicle control) [2]: 0.2 ± 0.1^3
- MafB mRNA level (ΔΔCt values relative to basal vehicle control) [2]: 5.1 ± 0.9^3
- NNAT mRNA level (ΔΔCt values relative to basal vehicle control) [2]: 7.4 ± 1.8^3
- NPY mRNA level (ΔΔCt values relative to basal vehicle control) [2]: 3.8 ± 0.6^3
- NR3C1 mRNA level (ΔΔCt values relative to basal vehicle control) [2]: 1.0 ± 0.1^
- Pdx1 mRNA level (ΔΔCt values relative to basal vehicle control) [2]: 0.5 ± 0.2^3
- TRH mRNA level (ΔΔCt values relative to basal vehicle control) [2]: 5.3 ± 0.5^3
- final concentration of optimal potency (dose-response studies) (rat beta cells [3]; survival and proliferation of rat beta cells, data not shown): 1000 nM
- Insulin Release during last 72 h of culture (rat beta cells [4]; 9 days, 6MP followed by 6 days, basal): 1.6 ± 1 ng/10^3 cells/h
- glucose-induced insulin secretion, Day 15 (rat beta cells [4]; 9 days, 6MP followed by 6 days, basal, 2.5 mM glucose): 24.4 ± 3.3 % of content/h
- glucose-induced insulin secretion, Day 15 (rat beta cells [4]; 9 days, 6MP followed by 6 days, basal, 5 mM glucose): 34.3 ± 3.9 % of content/h
- glucose-induced insulin secretion, Day 15 (rat beta cells [4]; 9 days, 6MP followed by 6 days, basal, 10 mM glucose): 46.8 ± 7.7 % of content/h
- glucose-induced insulin secretion, Day 15 (rat beta cells [4]; 9 days, 6MP followed by 6 days, basal, 20 mM glucose): 52.1 ± 1.8 % of content/h
- Insulin Release during last 72 h of culture (rat beta cells [4]; 15 days, 6MP): 0.9 ± 0.1 ng/10^3 cells/h
- glucose-induced insulin secretion, Day 15 (rat beta cells [4]; 15 days, 6MP, 2.5 mM glucose): 35.3 ± 7.4 % of content/h
- glucose-induced insulin secretion, Day 15 (rat beta cells [4]; 15 days, 6MP, 5 mM glucose): 37.7 ± 4.0 % of content/h
- glucose-induced insulin secretion, Day 15 (rat beta cells [4]; 15 days, 6MP, 10 mM glucose): 43.2 ± 6.8 % of content/h
- glucose-induced insulin secretion, Day 15 (rat beta cells [4]; 15 days, 6MP, 20 mM glucose): 44.0 ± 4.8 % of content/h

SMILES: C[C@H]1C[C@H]2[C@@H]3CCC4=CC(=O)C=C[C@]4(C)[C@@]3(Cl)[C@@H](O)C[C@]2(C)[C@@]1(O)C(=O)CO [Beclomethasone]
- Percent viable cells (rat beta cells [5]): 96%
- Percent EdU+ cells (rat beta cells [3]): 20.6%
- Z-Score (rat beta cells [3]): 5.9

SMILES: C[C@H]1C[C@H]2[C@@H]3CCC4=CC(=O)C=C[C@]4(C)[C@@]3(F)[C@@H](O)C[C@]2(C)[C@@]1(O)C(=O)CO [Betamethasone]
- Percent viable cells (rat beta cells [5]): 95%
- Percent EdU+ cells (rat beta cells [3]): 21.1%
- Z-Score (rat beta cells [3]): 5.5

SMILES: CCCC1O[C@@H]2C[C@H]3[C@@H]4CCC5=CC(=O)C=C[C@]5(C)[C@H]4[C@@H](O)C[C@]3(C)[C@]2(C(=O)CO)O1 (stereo partly shown) [Budesonide]
- Percent viable cells (rat beta cells [5]): 97%
- Percent EdU+ cells (rat beta cells [3]): 24.9%
- Z-Score (rat beta cells [3]): 4.1

SMILES: C[C@]12CCC(=O)C=C1CC[C@@H]1[C@@H]2CC[C@@]2(C)[C@H]1CC[C@]2(O)C(=O)CO [Cortexolone]
- Percent viable cells (rat beta cells [5]): 97%
- Percent EdU+ cells (rat beta cells [3]): 13.1%
- Z-Score (rat beta cells [3]): 4.1

SMILES: CS(=O)(=O)c1ccc([C@@H](CC2CCCC2)C(=O)Nc2nccs2)cc1 [GKA, RO-28-1675]
- effect of 15-day continuous treatment on beta cell survival (rat beta cells [5]; 10 mM glucose, irrespective of MP, data not shown): induces cytotoxicity and a net cell loss
- marked cytotoxicity at day 15 (rat beta cells [5]; GKA 3 μm, beta cells from 8- and 40-week old rats, 5 mmol/l glucose, data not shown): not observed
- dead cells at day 15 (cytotoxicity) (rat beta cells [5]; GKA 3 μm, neonatal beta cells, 5 mmol/l glucose): > 50%

SMILES: C[C@@H]1C[C@@H]([C@H](O)CC2CC(=O)NC(=O)C2)C(=O)[C@@H](C)C1 [cycloheximide]
- number of dead cells (induction of apoptosis) (rat beta cells [5]; within 48 h, purified rat beta cells): dose-dependent increase in the number of dead cells
